Tested on: A375-NRAS^Q61K cells
Test: CTGlo Cell Viability Assay, A375-NRAS^Q61K (A375.11) cells, 96 hours
Format: cell-based, human
Details: Homo sapiens, 96 h, A375.11 (A375-NRAS^Q61K) cells; for Emax: lowest % viability achieved
Method in brief: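 A375 cells carrying BRAF V600E and NRAS Q61K were seeded at 250 cells/well with a 10-point half-log dose series (max 10 μM final). After 96 h at 37 °C, viability was read as ATP luminescence (CellTiter-Glo), background-subtracted and normalized to DMSO (100%). GI50 from 4-parameter fit; Emax is the lowest % viability.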

Row | SMILES | GI50 [µM] | Emax [%]
1 | CCN(C)S(=O)(=O)Nc1ccc(F)c(Oc2ccc3ncc([C@H]4COC5(CCN(C6CC7(C6)CN(c6cc8c(cc6F)c(N6CCC(=O)NC6=O)nn8C)C7)CC5)C4)nc3c2)c1C#N [Compound 158, (3S)-3-[7-[2-cyano-3-[[ethyl(methyl)sulfamoyl]amino]-6-fluoro-phenoxy]quinoxalin-2-yl]-8-[2-[3-(2,4-dioxohexahydropyrimidin-1-yl)-5-fluoro-1-methyl-indazol-6-yl]-2-azaspiro[3.3]heptan-6-yl]-1-oxa-8-azaspiro[4.5]decane] | < 1 | 50 to 90
2 | CCN(C)S(=O)(=O)Nc1ccc(F)c(Oc2ccc3ncc(C4CC5(CCN(C6CC7(C6)CN(c6cc8c(cc6F)c(N6CCC(=O)NC6=O)nn8C)C7)CC5)C4)nc3c2)c1C#N (stereo not shown) [Compound 177, 7-[2-cyano-3-[[ethyl(methyl)sulfamoyl]amino]-6-fluoro-phenoxy]-2-[7-[2-[3-(2,4-dioxohexahydropyrimidin-1-yl)-5-fluoro-1-methyl-indazol-6-yl]-2-azaspiro[3.3]heptan-6-yl]-7-azaspiro[3.5]nonan-2-yl]quinoxaline] | < 1 | 50 to 90
3 | CCN(C)S(=O)(=O)Nc1ccc(F)c(Oc2ccc3ncn(C4CC5(CCN(C6CC7(CCN(c8cc9c(cc8F)c(N8CCC(=O)NC8=O)nn9C)CC7)C6)CC5)C4)c(=O)c3c2)c1C#N (stereo not shown) [Compound 198, 6-[2-cyano-3-[[ethyl(methyl)sulfamoyl]amino]-6-fluoro-phenoxy]-3-[7-[7-[3-(2,4-dioxohexahydropyrimidin-1-yl)-5-fluoro-1-methyl-indazol-6-yl]-7-azaspiro[3.5]nonan-2-yl]-7-azaspiro[3.5]nonan-2-yl]-4-oxo-quinazoline] | 1 to 10 | < 50
4 | COC1CN(S(=O)(=O)Nc2ccc(F)c(Oc3ccc4ncn([C@H]5COC6(CCN(C7CC8(C7)CN(c7cc9c(cc7F)c(N7CCC(=O)NC7=O)nn9C)C8)CC6)C5)c(=O)c4c3)c2C#N)C1 [Compound 246, N-[2-cyano-3-[3-[(3R)-8-[2-[3-(2,4-dioxohexahydropyrimidin-1-yl)-5-fluoro-1-methyl-indazol-6-yl]-2-azaspiro[3.3]heptan-6-yl]-1-oxa-8-azaspiro[4.5]decan-3-yl]-4-oxo-quinazolin-6-yl]oxy-4-fluoro-phenyl]-3-methoxy-azetidine-1-sulfonamide] | < 1 | < 50
5 | Cn1nc(N2CCC(=O)NC2=O)c2cc(F)c(N3CC4(CC(N5CCC6(CC5)CC(n5cnc7ccc(Oc8c(F)ccc(NS(=O)(=O)C9CCCC9)c8C#N)cc7c5=O)C6)C4)C3)cc21 [Compound 250, N-[2-cyano-3-[3-[7-[2-[3-(2,4-dioxohexahydropyrimidin-1-yl)-5-fluoro-1-methyl-indazol-6-yl]-2-azaspiro[3.3]heptan-6-yl]-7-azaspiro[3.5]nonan-2-yl]-4-oxo-quinazolin-6-yl]oxy-4-fluoro-phenyl]cyclopentanesulfonamide] | < 1 | < 50
6 | Cn1nc(N2CCC(=O)NC2=O)c2cc(F)c(N3CC4(CC(N5CCC6(CC5)C[C@@H](n5cnc7ccc(Oc8c(F)ccc(NS(=O)(=O)N9CC%10(CCC%10)C9)c8C#N)cc7c5=O)CO6)C4)C3)cc21 [Compound 254, N-[2-cyano-3-[3-[(3R)-8-[2-[3-(2,4-dioxohexahydropyrimidin-1-yl)-5-fluoro-1-methyl-indazol-6-yl]-2-azaspiro[3.3]heptan-6-yl]-1-oxa-8-azaspiro[4.5]decan-3-yl]-4-oxo-quinazolin-6-yl]oxy-4-fluoro-phenyl]-2-azaspiro[3.3]heptane-2-sulfonamide] | < 1 | < 50
7 | Cn1nc(N2CCC(=O)NC2=O)c2cc(F)c(N3CC4(CC(N5CCC6(CC5)CC(n5cnc7ccc(Oc8c(F)ccc(NS(=O)(=O)C9CCC9)c8C#N)cc7c5=O)C6)C4)C3)cc21 [Compound 259, N-[2-cyano-3-[3-[7-[2-[3-(2,4-dioxohexahydropyrimidin-1-yl)-5-fluoro-1-methyl-indazol-6-yl]-2-azaspiro[3.3]heptan-6-yl]-7-azaspiro[3.5]nonan-2-yl]-4-oxo-quinazolin-6-yl]oxy-4-fluoro-phenyl]cyclobutanesulfonamide] | < 1 | < 50
8 | Cn1nc(N2CCC(=O)NC2=O)c2cc(F)c(N3CC4(CC(N5CCC6(CC5)CC(n5cnc7ccc(Oc8c(F)ccc(NS(=O)(=O)C9CC9)c8C#N)cc7c5=O)C6)C4)C3)cc21 [Compound 260, N-[2-cyano-3-[3-[7-[2-[3-(2,4-dioxohexahydropyrimidin-1-yl)-5-fluoro-1-methyl-indazol-6-yl]-2-azaspiro[3.3]heptan-6-yl]-7-azaspiro[3.5]nonan-2-yl]-4-oxo-quinazolin-6-yl]oxy-4-fluoro-phenyl]cyclopropanesulfonamide] | < 1 | 50 to 90
9 | Cn1nc(N2CCC(=O)NC2=O)c2cc(F)c(N3CC4(CC(N5CCC6(CC5)CC(n5cnc7ccc(Oc8c(F)ccc(NS(=O)(=O)N9CC[C@@H](F)C9)c8C#N)cc7c5=O)C6)C4)C3)cc21 [Compound 261, (3R)-N-[2-cyano-3-[3-[7-[2-[3-(2,4-dioxohexahydropyrimidin-1-yl)-5-fluoro-1-methyl-indazol-6-yl]-2-azaspiro[3.3]heptan-6-yl]-7-azaspiro[3.5]nonan-2-yl]-4-oxo-quinazolin-6-yl]oxy-4-fluoro-phenyl]-3-fluoro-pyrrolidine-1-sulfonamide] | < 1 | < 50
10 | CC(C)S(=O)(=O)Nc1ccc(F)c(Oc2ccc3ncn(C4CC5(CCN(C6CC7(C6)CN(c6cc8c(cc6F)c(N6CCC(=O)NC6=O)nn8C)C7)CC5)C4)c(=O)c3c2)c1C#N (stereo not shown) [Compound 273, N-[2-cyano-3-[3-[7-[2-[3-(2,4-dioxohexahydropyrimidin-1-yl)-5-fluoro-1-methyl-indazol-6-yl]-2-azaspiro[3.3]heptan-6-yl]-7-azaspiro[3.5]nonan-2-yl]-4-oxo-quinazolin-6-yl]oxy-4-fluoro-phenyl]propane-2-sulfonamide] | < 1 | < 50
11 | Cn1nc(N2CCC(=O)NC2=O)c2cc(F)c(N3CC4(CC(N5CCC6(CC5)CC(n5cnc7ccc(Oc8c(F)ccc(NS(=O)(=O)N9C[C@H]%10C[C@H]%10C9)c8C#N)cc7c5=O)C6)C4)C3)cc21 (stereo partly drawn) [Compound 277, (1R,5S)-N-[2-cyano-3-[3-[7-[2-[3-(2,4-dioxohexahydropyrimidin-1-yl)-5-fluoro-1-methyl-indazol-6-yl]-2-azaspiro[3.3]heptan-6-yl]-7-azaspiro[3.5]nonan-2-yl]-4-oxo-quinazolin-6-yl]oxy-4-fluoro-phenyl]-3-azabicyclo[3.1.0]hexane-3-sulfonamide] | < 1 | 50 to 90

Reference: patent US20260297060A1, “COMPOUNDS FOR THE DEGRADATION OF MUTANT BRAF” (C4 THERAPEUTICS, INC., priority 2023, published 2026)
